The source of these data is US20240343727A1, “PYRIDAZINONE OR PYRIDINONE COMPOUNDS, PREPARATION METHODS AND USES THEREOF” (InventisBio Co., Ltd., priority 2021, published 2024).

For this test, the target named is T1, PARP7 (Homo sapiens, UniProt Q7Z3E1).
T1 sequence (Q7Z3E1 1-657): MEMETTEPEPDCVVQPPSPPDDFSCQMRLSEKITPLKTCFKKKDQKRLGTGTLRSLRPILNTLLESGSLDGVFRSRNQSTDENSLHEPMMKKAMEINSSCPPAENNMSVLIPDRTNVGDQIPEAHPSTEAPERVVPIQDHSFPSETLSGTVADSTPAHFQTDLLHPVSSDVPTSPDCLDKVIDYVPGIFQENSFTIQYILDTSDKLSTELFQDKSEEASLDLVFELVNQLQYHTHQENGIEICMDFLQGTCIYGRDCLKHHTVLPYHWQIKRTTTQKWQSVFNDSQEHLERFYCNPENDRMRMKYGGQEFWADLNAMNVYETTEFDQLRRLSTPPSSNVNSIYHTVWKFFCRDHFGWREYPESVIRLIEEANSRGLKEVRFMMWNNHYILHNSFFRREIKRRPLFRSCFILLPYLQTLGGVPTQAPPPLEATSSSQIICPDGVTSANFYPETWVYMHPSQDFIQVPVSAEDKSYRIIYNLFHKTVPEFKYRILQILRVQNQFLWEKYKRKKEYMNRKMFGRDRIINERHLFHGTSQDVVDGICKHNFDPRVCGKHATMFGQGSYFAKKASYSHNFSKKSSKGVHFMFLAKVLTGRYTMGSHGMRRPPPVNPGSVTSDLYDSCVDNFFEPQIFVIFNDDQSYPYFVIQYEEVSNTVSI
In words: PARP7 TR-FRET assay (binding, displacement of biotinylated Probe A). The following applies: 6 nM PARP7, 2 nM Probe A, 25° C., 30 min. How it is done: Biological Assay Example A: PARP7 TR-FRET Assay
A time-resolved fluorescence energy transfer (TR-FRET) assay was used to test binding activity of compounds to PARP7. Two microliter test compound was added in 384-well plate. Reactions were performed in a 6 uL volume by adding 4 uL mixture of PARP7 and Probe A (a biotinylated probe binding to the PARP7: N-(6-(2-(4-((2-(6-oxo-5-(trifluoromethyl)-1,6-dihydropyridazin-4-yl) isoindolin-5-yl) oxy) piperidin-1-yl) acetamido) hexyl)-5-((3aS,4S,6aR)-2-oxohexahydro-1H-thieno [3,4-d]imidazol-4-yl) pentanamide, made as reported in WO2019212937A1) in assay buffer (20 mM HEPES pH 8.0, 100 mM NaCl, 0.1% BSA, 2 mM DTT and 0.002% Tween20). The final concentration of PARP7 and Probe A were 6 nM and 2 nM, incubating with test compounds at 25° C. for 30 min. Four microliter ULight-anti 6xHis and LANCE Eu-W1024 labeled streptavidin (PerkinElmer) were added with the final concentration of ULight-anti 6xHis and LANCE Eu-W1024 at 4 nM and 0.25 nM. The reaction mixture was incubated at 25° C. for 30 min. The plate was read on a Tecan Spark plate reader (excitation wavelength at 320 nm, emission wavelength at 615 nm and 665 nm with a 90 us delay. The ratio of the 665/615 nm emission was calculated for each well to the amount of complex of PARP7 and Probe A in each well was calculated. The 0.25% DMSO vehicle was used as control and no PARP7 well was as blank well. Inhibition rate is calculated with the formula of % inhibition=100-100*(TRFcmpd-TRFblank)/(TRFcontrol−TRFblank). Inhibition IC50 is calculated with the equation of Y=Bottom+ (Top-Bottom)/(1+10^((LogIC50−X) *Hill Slope))
The IC50 is the midpoint of a concentration-inhibition curve. The low end stands for greater potency, the high end for weaker potency. In turn, `C[C@@H]1CN(c2n[nH]c(=O)c3cccc(F)c23)C[C@@H](CC(=O)N2CCN(c3ncc(C(F)(F)F)cn3)CC2)O1` (stereo in doubt) [Compound 90] registered an IC50 of 100 to 1000 nM.
Under `N#CC1(c2ccnc(N3CCN(C(=O)CC4CN(c5cc(C(F)(F)F)c(=O)[nH]n5)c5cc(Cl)ccc5O4)CC3)n2)CC1` (single isomer, unassigned) [Compound 345] stands over 1000 nM; under `O=C(c1cc(Oc2n[nH]c(=O)c(C(F)(F)F)c2N2CC3(C2)CC(F)(F)C3)ccn1)N1CCN(c2ncc(C(F)(F)F)cn2)CC1` [Compound 304], under 100 nM; under `O=C(CC1CN(c2cc(C(F)(F)F)c(=O)[nH]n2)c2ccccc2O1)N1CCN(c2ncc(Cl)cn2)CC1` (single isomer, unassigned) [Compound 296], under 100 nM.
The value for `O=C(c1cccc(Oc2n[nH]c(=O)c(C(F)(F)F)c2N2CC(F)C2)c1)N1CCN(c2ncc(C(F)(F)F)cn2)CC1` [Compound 85] was under 100 nM.
The value for `O=C(CC1CN(c2n[nH]c(=O)c3c(F)cccc23)CCO1)N1CCN(c2ncc(C(F)(F)F)cn2)CC1` (single isomer, unassigned) [Compound 94] was under 100 nM; that for `O=C(OC1CN(c2cc(C(F)(F)F)c(=O)[nH]n2)CCC1(F)F)N1CCN(c2ncc(C(F)(F)F)cn2)CC1` (single isomer, unassigned) [Compound 117] was over 1000 nM.
`Cc1c(Oc2cc(C(=O)N3CCN(c4ncc(C(F)(F)F)cn4)CC3)ccc2Cl)n[nH]c(=O)c1C(F)(F)F` [Compound 24] displayed an IC50 of 100 to 1000 nM.
The value for `O=C(CC1CN(c2cc(C(F)(F)F)c(=O)[nH]n2)c2cc(N3CCOCC3=O)ccc2O1)N1CCN(c2ncc(C(F)(F)F)cn2)CC1` (single isomer, unassigned) [Compound 281] was under 100 nM.
Under `O=C(CC1CN(c2cc(C(F)(F)F)c(=O)[nH]n2)c2ccccc2O1)N1CCN(c2ccc(C3CC3)cn2)CC1` (single isomer, unassigned) [Compound 286] stands over 1000 nM; under `C[C@@H]1CN(C(=O)c2cc(Oc3n[nH]c(=O)c(C(F)(F)F)c3N3CC4(C3)CC(F)(F)C4)ccn2)CCN1c1cnc(C(F)(F)F)cn1` [Compound 147], under 100 nM.
Under `CC1(C)CN(c2c(Oc3cccc(C(=O)N4CCN(c5ncc(C(F)(F)F)cn5)CC4)c3)n[nH]c(=O)c2C(F)(F)F)C1` [Compound 174] stands under 100 nM.
`O=C(CC1CN(c2cc(C(F)(F)F)c(=O)[nH]n2)c2ccc(Cl)cc2O1)N1CCN(c2ncc(C(F)(F)F)cn2)CC1` (single isomer, unassigned) [Compound 163] returned an IC50 of under 100 nM.
Under `CC(C)(O)c1cnc(N2CCN(C(=O)CC3CN(c4cc(C(F)(F)F)c(=O)[nH]n4)c4cc(Cl)ccc4O3)CC2)nc1` (single isomer, unassigned) [Compound 151] stands under 100 nM.
Under `O=C(CC1CN(c2n[nH]c(=O)c3ccc(C4CC4)cc23)CCO1)N1CCN(c2ncc(C(F)(F)F)cn2)CC1` (single isomer, unassigned) [Compound 105] stands 100 to 1000 nM; under `N#Cc1ccc2c(=O)[nH]nc(N3CCOC(CC(=O)N4CCN(c5ncc(C(F)(F)F)cn5)CC4)C3)c2c1` (single isomer, unassigned) [Compound 244], 100 to 1000 nM; under `O=C(c1cncc(Oc2n[nH]c(=O)c(C(F)(F)F)c2N2CC3(C2)CC(F)(F)C3)c1)N1CCN(c2ccc(C(F)(F)F)cn2)CC1` [Compound 335], under 100 nM.
The value for `COC1CN(c2c(Oc3cncc(C(=O)N4CCN(c5ncc(C(F)(F)F)cn5)CC4)c3)n[nH]c(=O)c2C(F)(F)F)C1` [Compound 239] was under 100 nM; that for `C#Cc1c(C)c(N2CCOC(CC(=O)N3CCN(c4ncc(C(F)(F)F)cn4)CC3)C2)n[nH]c1=O` (single isomer, unassigned) [Compound 89] was under 100 nM; that for `N#Cc1ccc2c(c1)N(c1cc(C(F)(F)F)c(=O)[nH]n1)CC(CC(=O)N1CCN(c3ncc(C(F)(F)F)cn3)CC1)O2` (stereo not drawn) [Compound 136] was under 100 nM.
As to `O=C(CC1CN(c2n[nH]c(=O)c3cc(OCC(F)F)ccc23)CCO1)N1CCN(c2ncc(C(F)(F)F)cn2)CC1` (single isomer, unassigned) [Compound 208], the IC50 is over 1000 nM.
The value for `O=C(c1cncc(Oc2n[nH]c(=O)c(C(F)(F)F)c2N2CC3(C2)CC(F)(F)C3)c1)N1CCN(c2ncc(C(F)(F)F)cn2)CC1` [Compound 238] was under 100 nM; that for `N#Cc1ccc2c(c1)N(c1cc(C(F)(F)F)c(=O)[nH]n1)CC(CC(=O)N1CCN(c3ccc(C(F)(F)F)cn3)CC1)O2` (single isomer, unassigned) [Compound 154] was under 100 nM; that for `O=C(CC1CN(c2cc(C(F)(F)F)c(=O)[nH]n2)c2ccccc2O1)N1CCN(c2ncc(C(F)F)cn2)CC1` (single isomer, unassigned) [Compound 249] was 100 to 1000 nM.
For `N#Cc1ccc(N2CCN(C(=O)CC3CN(c4cc(C(F)(F)F)c(=O)[nH]n4)c4cc(C#N)ccc4O3)CC2)nc1` (single isomer, unassigned) [Compound 230], the IC50 was in the range of 100 to 1000 nM.
The value for `O=C(c1cncc(Oc2n[nH]c(=O)c(C(F)(F)F)c2N2CC(C3CC3)C2)c1)N1CCN(c2ncc(C(F)F)cn2)CC1` [Compound 279] was under 100 nM; that for `O=C(CC1CN(c2cc(C(F)(F)F)c(=O)[nH]n2)c2ccccc2O1)N1CCN(c2ccc(C(F)(F)F)cn2)CC1` (single isomer, unassigned) [Compound 247] was 100 to 1000 nM; that for `O=C(c1cccc(Oc2n[nH]c(=O)c(C(F)(F)F)c2N2CC3(CCC3)C2)c1)N1CCN(c2ncc(C3CC3)cn2)CC1` [Compound 226] was under 100 nM.
`CCOC1CN(c2c(Oc3cncc(C(=O)N4CCN(c5ncc(C(F)(F)F)cn5)CC4)c3)n[nH]c(=O)c2C(F)(F)F)C1` [Compound 322]: the IC50 is 100 to 1000 nM.
The value for `N#CC1(c2ccnc(N3CCN(C(=O)CC4CN(c5cc(C(F)(F)F)c(=O)[nH]n5)c5cc(Cl)ccc5O4)CC3)n2)CC1` (stereo not drawn) [Compound 150] was under 100 nM; that for `C#Cc1cnc(N2CCN(C(=O)c3cccc(Oc4n[nH]c(=O)c(C(F)(F)F)c4N4CC5(CCCO5)C4)c3)CC2)nc1` [Compound 275] was under 100 nM.
Under `COC1CN(c2c(Oc3ccnc(C(=O)N4CCN(c5ncc(C(F)(F)F)cn5)[C@H](C)C4)c3)n[nH]c(=O)c2C(F)(F)F)C1` [Compound 342] stands under 100 nM; under `CO[C@H]1C[C@@H](Nc2c(Oc3cccc(C(=O)N4CCN(c5ncc(C(F)(F)F)cn5)CC4)c3)n[nH]c(=O)c2C(F)(F)F)C1` [Compound 191], under 100 nM.
Under `C#Cc1cnc(N2CCN(C(=O)CC3CN(c4cc(C(F)(F)F)c(=O)[nH]n4)c4cc(C#N)ccc4O3)CC2)nc1` (single isomer, unassigned) [Compound 235] stands under 100 nM; under `O=C(CC1CN(c2n[nH]c(=O)c3ccc(N4CC(F)(F)C4)cc23)CCO1)N1CCN(c2ncc(C(F)(F)F)cn2)CC1` (single isomer, unassigned) [Compound 220], under 100 nM.
`C#Cc1c(C)c(N2CCOC(CC(=O)N3CCN(c4ncc(C(F)(F)F)cn4)CC3)C2)n[nH]c1=O` (single isomer, unassigned) [Compound 113] yielded an IC50 of 100 to 1000 nM.
With `C#Cc1c(C)c(Oc2cccc(C(=O)N3CCN(c4ncc(C(F)(F)F)cn4)CC3)c2)n[nH]c1=O` [Compound 75], the IC50 was under 100 nM.
The value for `CS(=O)(=O)Cc1ccc2c(c1)N(c1cc(C(F)(F)F)c(=O)[nH]n1)CC(CC(=O)N1CCN(c3ncc(C(F)(F)F)cn3)CC1)O2` (single isomer, unassigned) [Compound 270] was under 100 nM; that for `O=C(CC1CN(c2n[nH]c(=O)c3ccc(F)cc23)CCO1)N1CCN(c2ncc(C(F)(F)F)cn2)CC1` (single isomer, unassigned) [Compound 51] was 100 to 1000 nM.
